{"source": "a melting point compilation (Tetko et al.)"}
{"units": {"melting point": "°C"}}
{"compound": "Cc1c(CN)cnn1C", "melting point": "38 to 40"}
{"compound": "O=C(O)c1ccc(CS(=O)(=O)c2ccccc2)cc1", "melting point": "297 to 299"}
{"compound": "CCN(CC)c1ccc(S(N)(=O)=O)cc1N", "melting point": "102 to 104"}
{"compound": "O=[N+]([O-])c1n[nH]cc1S(=O)(=O)Cl", "melting point": "154 to 156"}
{"compound": "O=C(O)c1c[nH]cc1-c1ccc2c(c1)OCCO2", "melting point": "196 to 198"}
{"compound": "N#Cc1cc2c(nc1N)CCCC2", "melting point": "195 to 197"}
{"compound": "Cc1nc(S)nc(C)c1CCC(=O)O", "melting point": "154 to 156"}
{"compound": "O=C(O)CNC(=O)c1ccsc1", "melting point": "176 to 178"}
{"compound": "O=C(O)C1(c2ccc3c(c2)OCO3)CCCCC1", "melting point": "176 to 178"}
{"compound": "O=C(Nc1cccc(F)c1)C1CSCN1", "note": "(configuration not stated)", "melting point": "222 to 224"}
{"compound": "CCC(=O)c1ccc(Cl)c(Cl)c1O", "melting point": "98 to 100"}
{"compound": "O=c1cccn[nH]1", "melting point": "94 to 98"}
{"compound": "Nc1ccc(OCc2cccc(C(F)(F)F)c2)cc1", "melting point": "67 to 69"}
{"compound": "CN(CC(=O)O)C(=O)Nc1cccc2ccccc12", "melting point": "126 to 128"}
{"compound": "OCCn1nccc1C1CCNCC1", "melting point": "126 to 128"}
{"compound": "Oc1ccnc2cc(Cl)c(Br)cc12", "melting point": "369 to 371"}
{"compound": "Cc1nc(CO)c(C)s1", "melting point": "44 to 46"}
{"compound": "COc1cc(Cl)ccc1S(N)(=O)=O", "melting point": "169 to 171"}
{"compound": "O=Cc1[nH]nnc1-c1ccccc1", "melting point": "169 to 171"}
{"compound": "COc1ccc(-c2cc(C(=O)O)no2)c(F)c1", "melting point": "194 to 196"}
{"compound": "Nc1cccc(NC(=O)c2cccc(C(F)(F)F)c2)c1", "melting point": "134 to 136"}
{"compound": "O=C(O)c1ccc(-n2nnc3ccccc32)cc1", "melting point": "308 to 310"}
{"compound": "Nc1nnc(CCOc2ccccc2)o1", "melting point": "142 to 144"}
{"compound": "O=C(O)CN(CC(=O)O)Cc1ccccc1", "melting point": "200 to 202"}
{"compound": "Cc1ccc2c(c1)C(=O)CCC2", "melting point": "28 to 30"}
{"compound": "COc1cc(C)nc(Cl)n1", "melting point": "35 to 37"}
{"compound": "Fc1ccc(CNc2nc3ccccc3s2)cc1", "melting point": "155 to 157"}
{"compound": "O=C(O)c1ccc(F)c(S(=O)(=O)Cl)c1", "melting point": "138 to 140"}
{"compound": "CCOC(=O)C(C#N)C(N)=O", "note": "(configuration not stated)", "melting point": "152 to 154"}
{"compound": "O=C(O)c1cc[nH]c(=O)c1", "melting point": "299 to 301"}
{"compound": "CCn1cc(N2C(=O)C=CC2=O)cn1", "melting point": "92 to 94"}
{"compound": "Cc1cc(Cl)nc(-c2cccnc2)n1", "melting point": "70 to 72"}
{"compound": "COc1cc(C=CC(=O)O)ccc1F", "melting point": "211 to 213"}
{"compound": "COC(=O)c1sc2ncc(C=O)cc2c1C", "melting point": "199 to 201"}
{"compound": "Cc1nn(C)c(C)c1S(=O)(=O)NC(C)C(=O)O", "note": "(configuration not stated)", "melting point": "197 to 199"}
{"compound": "NC(=NO)c1cccc(CN2CCCCC2)c1", "melting point": "153 to 155"}
{"compound": "CC(C)c1ccc(N2CCC(C(=O)O)C2=O)cc1", "note": "(configuration not stated)", "melting point": "129 to 131"}
{"compound": "Nn1c(S)nnc1C1CCOC1", "note": "(configuration not stated)", "melting point": "116 to 118"}
{"compound": "COC(=O)c1cnn2c1CCCC2", "melting point": "64 to 66"}
{"compound": "CC1CCC(C(C)C)C(NC(=O)c2ccnc(F)c2)C1", "note": "(configuration not stated)", "melting point": "79 to 81"}
{"compound": "COc1ccc(C(=O)O)cc1S(=O)(=O)N1CCCc2ccccc21", "melting point": "211 to 213"}
{"compound": "O=C(c1cc(Cl)c[nH]1)C(Cl)(Cl)Cl", "melting point": "128 to 130"}
{"compound": "Nc1ccc(NC(=O)c2ccccc2)nc1", "melting point": "139 to 141"}
{"compound": "O=C(CCn1ccnc1)Nc1cccc(C(=O)O)c1", "melting point": "216 to 218"}
{"compound": "CN(C)C(=O)c1cccnc1Cl", "melting point": "69 to 71"}
{"compound": "O=[N+]([O-])c1ccc(O)c(Cc2ccccc2)c1", "melting point": "117 to 121"}
{"compound": "COC(=O)c1ncsc1SCc1ccccc1", "melting point": "92 to 94"}
{"compound": "CCCCCCOc1ccc(CC(=O)O)cc1", "melting point": "79 to 81"}
{"compound": "NC(=O)c1c(F)cc(Br)cc1F", "melting point": "172 to 174"}
{"compound": "Cn1nnnc1Sc1ccc(Cl)cc1N", "melting point": "128 to 130"}
{"compound": "O=C(O)CCCc1ccc2c(c1)CC(=O)N2", "melting point": "180 to 182"}
{"compound": "O=C(O)c1cnc(S)n1-c1ccccc1", "melting point": "245 to 247"}
{"compound": "Nc1nc(-c2cccc(O)c2)cs1", "melting point": "151 to 153"}
{"compound": "O=C(O)CC(Cc1ccccc1)Cc1ccccc1", "melting point": "82 to 84"}
{"compound": "COC(OC)(OC)c1cc2ccccc2c(=O)[nH]1", "melting point": "131 to 133"}
{"compound": "O=C1NC(=O)N(Cc2cccs2)C1=O", "melting point": "170 to 172"}
{"compound": "Cn1cc(CCC(=O)O)cn1", "melting point": "137 to 139"}
{"compound": "Cc1cc(Br)cc2c(=O)cc[nH]c12", "melting point": "249 to 251"}
{"compound": "COc1ccc2[nH]c(C)nc2c1", "melting point": "119 to 121"}
{"compound": "O=S(=O)(NCc1ccccc1)c1cccs1", "melting point": "145 to 150"}
{"compound": "Nc1ccc(F)c(-n2nnnc2C2CC2)c1", "melting point": "93 to 95"}
{"compound": "Cc1ccc(CC(=O)O)o1", "melting point": "56 to 58"}
{"compound": "Sc1nnc(Nc2ccccc2)s1", "melting point": "160 to 162"}
{"compound": "Nc1nc2c(s1)CNCC2", "melting point": "176 to 178"}
{"compound": "COc1ccc(CNc2ccncn2)cc1OC", "melting point": "124 to 126"}
{"compound": "Cc1cc(S(=O)(=O)c2ccc(O)c(C)c2)ccc1O", "melting point": "273 to 276"}
{"compound": "O=C1CCOc2c(Cl)cc(Cl)cc21", "melting point": "86 to 88"}
{"compound": "NS(=O)(=O)c1cc([N+](=O)[O-])ccc1Br", "melting point": "204 to 206"}
{"compound": "O=C(O)c1ccc(Nc2ncnc3ccccc23)cc1", "melting point": "345 to 347"}
{"compound": "Cc1nc2ccccc2n1C(C(=O)O)C(C)C", "note": "(configuration not stated)", "melting point": "119 to 121"}
{"compound": "O=C(O)c1cc(C2CC2)nc2onc(-c3ccccc3)c12", "melting point": "213 to 215"}
{"compound": "CC(C)c1nc(N)n(C)n1", "melting point": "108 to 110"}
